Experimental data as given in patent US20240360082A1, “SUBSTITUTED PYRIDONE COMPOUNDS USEFUL TO TREAT ORTH[…]” (priority 2021, published 2024).

Experiments:
[1] = biological target: influenza A virus minigenome (PB2, PB1, PA, NP proteins) (UniProt P04665); format: cell-based; details: read-out: RNP_ Hubei B IC50
[2] = biological target: influenza B virus minigenome (Hubei B) (UniProt P04665); format: cell-based; details: read-out: RNP_Hubei B IC50
Sequence of influenza B virus minigenome (Hubei B) (P04665 whole entry): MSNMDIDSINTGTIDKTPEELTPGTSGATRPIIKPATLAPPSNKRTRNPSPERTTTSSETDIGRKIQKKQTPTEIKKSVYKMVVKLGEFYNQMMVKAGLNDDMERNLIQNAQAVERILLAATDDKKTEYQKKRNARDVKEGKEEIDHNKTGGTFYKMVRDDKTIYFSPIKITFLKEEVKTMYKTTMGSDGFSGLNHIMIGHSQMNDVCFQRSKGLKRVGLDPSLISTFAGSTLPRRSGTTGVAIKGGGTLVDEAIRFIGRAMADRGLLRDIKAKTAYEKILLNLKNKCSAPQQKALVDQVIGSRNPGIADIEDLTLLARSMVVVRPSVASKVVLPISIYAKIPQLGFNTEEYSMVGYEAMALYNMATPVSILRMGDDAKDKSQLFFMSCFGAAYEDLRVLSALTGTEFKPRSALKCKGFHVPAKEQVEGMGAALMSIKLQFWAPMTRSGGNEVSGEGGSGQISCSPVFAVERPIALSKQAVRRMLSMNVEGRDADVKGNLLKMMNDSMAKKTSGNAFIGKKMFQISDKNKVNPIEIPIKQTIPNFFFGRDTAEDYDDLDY

Sequence of influenza A virus minigenome (PB2, PB1, PA, NP proteins) (P04665 whole entry): as above

Work on `CN(C)C[C@]1(C)COC[C@@H](COc2ccc(-c3cc(C(N)=O)c(=O)[nH]c3C(F)(F)F)cc2)O1` [Example 424, 5-(4-(((2S,6R)-6-((dimethylamino)methyl)-6-methyl-1,4-dioxan-2-yl)methoxy)phenyl)-2-oxo-6-(trifluoromethyl)-1,2-dihydropyridine-3-carboxamide] yielded an IC50 [1] of 5 to 10 µM.

`C[C@]1(COC(F)F)COC[C@@H](COc2ccc(-c3cc(C(N)=O)c(=O)[nH]c3C(F)(F)F)cc2)O1` [Example 425, 5-(4-(((2S,6R)-6-((difluoromethoxy)methyl)-6-methyl-1,4-dioxan-2-yl)methoxy)phenyl)-2-oxo-6-(trifluoromethyl)-1,2-dihydropyridine-3-carboxamide] showed an IC50 [1] of 5 to 10 µM.

With `COCC[C@@]1(C)COC[C@@H](COc2ccc(-c3cc(C(N)=O)c(=O)[nH]c3C(F)(F)F)cc2)O1` [Example 426, 5-(4-(((2S,6S)-6-(2-methoxyethyl)-6-methyl-1,4-dioxan-2-yl)methoxy)phenyl)-2-oxo-6-(trifluoromethyl)-1,2-dihydropyridine-3-carboxamide] the IC50 [1] was 5 to 10 µM.

In the case of `C[C@]1(COC2COC2)COC[C@@H](COc2ccc(-c3cc(C(N)=O)c(=O)[nH]c3C(F)(F)F)cc2)O1` [Example 427, 5-(4-(((2S,6R)-6-methyl-6-((oxetan-3-yloxy)methyl)-1,4-dioxan-2-yl)methoxy)phenyl)-2-oxo-6-(trifluoromethyl)-1,2-dihydropyridine-3-carboxamide], the IC50 [1] is reported as 5 to 10 µM.

`CCOC[C@@]1(C)COC[C@@H](COc2ccc(-c3cc(C(N)=O)c(=O)[nH]c3C(F)(F)F)cc2)O1` [Example 428, 5-(4-(((2S,6S)-6-(ethoxymethyl)-6-methyl-1,4-dioxan-2-yl)methoxy)phenyl)-2-oxo-6-(trifluoromethyl)-1,2-dihydropyridine-3-carboxamide] showed an IC50 [1] of 5 to 10 µM.

Compound `CC1(OC[C@@]2(C)COC[C@@H](COc3ccc(-c4cc(C(N)=O)c(=O)[nH]c4C(F)(F)F)cc3)O2)COC1` [Example 429] has an IC50 [1] of 5 to 10 µM.

`COCCOC[C@@]1(C)COC[C@@H](COc2ccc(-c3cc(C(N)=O)c(=O)[nH]c3C(F)(F)F)cc2)O1` [Example 430, 5-(4-(((2S,6S)-6-((2-methoxyethoxy)methyl)-6-methyl-1,4-dioxan-2-yl)methoxy)phenyl)-2-oxo-6-(trifluoromethyl)-1,2-dihydropyridine-3-carboxamide] gave an IC50 [1] of 5 to 10 µM.

In the case of `C[C@]1(COCC(F)F)COC[C@@H](COc2ccc(-c3cc(C(N)=O)c(=O)[nH]c3C(F)(F)F)cc2)O1` [Example 431, 5-(4-(((2S,6R)-6-((2,2-difluoroethoxy)methyl)-6-methyl-1,4-dioxan-2-yl)methoxy)phenyl)-2-oxo-6-(trifluoromethyl)-1,2-dihydropyridine-3-carboxamide], the IC50 [1] is reported as 5 to 10 µM.

`C[C@]1(COCC(F)(F)F)COC[C@@H](COc2ccc(-c3cc(C(N)=O)c(=O)[nH]c3C(F)(F)F)cc2)O1` [Example 432, 5-(4-(((2S,6R)-6-methyl-6-((2,2,2-trifluoroethoxy)methyl)-1,4-dioxan-2-yl)methoxy)phenyl)-2-oxo-6-(trifluoromethyl)-1,2-dihydropyridine-3-carboxamide] showed an IC50 [1] of 5 to 10 µM.

Work on `C[C@]1(CO)COC[C@@H](COc2ccc(-c3cc(C(N)=O)c(=O)[nH]c3C(F)(F)F)cc2)O1` [Example 433, 5-(4-(((2S,6S)-6-(hydroxymethyl)-6-methyl-1,4-dioxan-2-yl)methoxy)phenyl)-2-oxo-6-(trifluoromethyl)-1,2-dihydropyridine-3-carboxamide] yielded an IC50 [1] of 5 to 10 µM.

Compound `C[C@]1(CC(F)F)COC[C@@H](COc2ccc(-c3cc(C(N)=O)c(=O)[nH]c3C(F)(F)F)cc2)O1` [Example 434, 5-(4-(((2S,6S)-6-(2,2-difluoroethyl)-6-methyl-1,4-dioxan-2-yl)methoxy)phenyl)-2-oxo-6-(trifluoromethyl)-1,2-dihydropyridine-3-carboxamide] has an IC50 [1] of 5 to 10 µM.

For `C[C@]1(CCF)COC[C@@H](COc2ccc(-c3cc(C(N)=O)c(=O)[nH]c3C(F)(F)F)cc2)O1` [Example 435, 5-(4-(((2S,6S)-6-(2-fluoroethyl)-6-methyl-1,4-dioxan-2-yl)methoxy)phenyl)-2-oxo-6-(trifluoromethyl)-1,2-dihydropyridine-3-carboxamide], the IC50 [1] was 5 to 10 µM.

`C[C@]1(COCCF)COC[C@@H](COc2ccc(-c3cc(C(N)=O)c(=O)[nH]c3C(F)(F)F)cc2)O1` [Example 436, 5-(4-(((2S,6R)-6-((2-fluoroethoxy)methyl)-6-methyl-1,4-dioxan-2-yl)methoxy)phenyl)-2-oxo-6-(trifluoromethyl)-1,2-dihydropyridine-3-carboxamide] was tested, and the IC50 [2] was 5 to 10 µM.

Work on `C[C@@]1(C2CC2)COC[C@@H](COc2ccc(-c3cc(C(N)=O)c(=O)[nH]c3C(F)(F)F)cc2)O1` [Example 437, 5-(4-(((2S,6R)-6-cyclopropyl-6-methyl-1,4-dioxan-2-yl)methoxy)phenyl)-2-oxo-6-(trifluoromethyl)-1,2-dihydropyridine-3-carboxamide] yielded an IC50 [2] of 5 to 10 µM.

`COC[C@]1(C2CC2)COC[C@@H](COc2ccc(-c3cc(C(N)=O)c(=O)[nH]c3C(F)(F)F)cc2)O1` [Example 438, 5-(4-(((2S,6R)-6-cyclopropyl-6-(methoxymethyl)-1,4-dioxan-2-yl)methoxy)phenyl)-2-oxo-6-(trifluoromethyl)-1,2-dihydropyridine-3-carboxamide] gave an IC50 [2] of 5 to 10 µM.

`COC[C@@]1(C2CC2)COC[C@@H](COc2ccc(-c3cc(C(N)=O)c(=O)[nH]c3C(F)(F)F)cc2)O1` [Example 439, 5-(4-(((2S,6S)-6-cyclopropyl-6-(methoxymethyl)-1,4-dioxan-2-yl)methoxy)phenyl)-2-oxo-6-(trifluoromethyl)-1,2-dihydropyridine-3-carboxamide] showed an IC50 [2] of 5 to 10 µM.

In the case of `NC(=O)c1cc(-c2ccc(OC[C@@H]3COC[C@]4(CCOC4)O3)cc2)c(C(F)(F)F)[nH]c1=O` [Example 440, 5-(4-(((5R,7S)-2,6,9-trioxaspiro[4.5]decan-7-yl)methoxy)phenyl)-2-oxo-6-(trifluoromethyl)-1,2-dihydropyridine-3-carboxamide], the IC50 [2] is reported as 5 to 10 µM.
